Read-outs that look alike come from different tables or passages of the source.
Legend:
Format in all cases: cell-based, human
HL60 cells [1] = experiment: CellTiter-Glo assay, HL60; conditions: read-out: IC50 Leukemia HL60
Procedure: To validate the anti-proliferative activity of the imidazole derivatives, the compounds were tested against several cancer cell lines, which included breast cancer (MDA-MB-231, KAIMRC1, and KAIMRC2), colorectal cancer (HCT8), and acute promyelocytic leukemia cells (HL60). KAIMRC1 was isolated from a person with stage II-B breast cancer and is ER+/PR+ and HER2-. In comparison, KAIMRC2 was isolated from a person with metastasized breast cancer and is a triple-negative (ER-/PR-, and HER2-) tumor cell line.
The CellTiter-Glo assay (Promega™, Madison, WI, USA) was used to evaluate imidazole and oxazolone derivatives cytotoxicity against various cancer cell lines; MCF-10A, HL60, MDA-MB-231, and HCT8, purchased from ATCC, USA, except KAIMRC1 and KAIMRC2, which were isolated, established, and characterized in the core laboratory facility KAIMRC, Riyadh, Saudi Arabia. The cells were seeded in white 96-well plates at a density of 5 × 10^3 cells/well in a 100 μL of growth medium with various concentrations of each compound ranging from 0 to 250 µM. Cells were incubated at 37 °C for 24 h. Plates were equilibrated at RT for 30 min. A quantity of 100 µL of CellTiter-Glo reagent was added to each well and mixed for 2 min on an orbital shaker. Plates were incubated for 10 min at RT before measuring the luminescence using an Envision plate reader (Perkin Elmer). Half-maximal inhibitory concentration IC50 values (μM) were calculated for each imidazole derivative from the dose–response curve. The cytotoxic effect at a concentration <10 µM was considered strongly active and from 11 to 100 µM was considered moderately active, whereas above 100 µM was deemed non-active. Mitoxantrone was utilized as a positive control. Experiments were performed in triplicates.

HL60 cells [2] = experiment: High-content imaging (HCI) cell health / apoptosis assay; conditions: for viability at 31.25 µM / viability at 62.5 µM / viability at 125 µM: Homo sapiens, HL-60, HCI Cell Health, read-out: HL60 Cell Line % Cell Viability; for viability at 31.25 µM / viability at 62.5 µM / viability at 125 µM / apoptosis in HL60 cells (HCI): 48 h; for apoptosis in HL60 cells (HCI): increasing concentrations 31.25-125 µM, compared with control
Procedure: Figure 5A depicts a dose-dependent increase in cell shrinkage/condensing, and necrotic cells are also visible. […] Furthermore, even at the lowest concentration, 31.25 µM, compound 9 was more efficacious than compound 8 since there appeared to be fewer healthy cells (blue and green staining) and a greater level of shrinkage. Moreover, Figure 5B depicts the HCI Cell Health determined by means of digital analysis, displaying the HL60 percentage cell viability as a function of increasing drug concentrations.
Figure 5 HCI-based apoptosis assay. (A) HL60 cells were treated with three concentrations (31.25 µM, 62.5 µM, and 125 µM) of compounds # 8 (a–c), # 9 (d–f), and PBS for the negative control (g) for 48 h. The nucleus (blue) was stained with HOECHST 33342, the cytoplasm (Green) was stained with Calcein AM, and dead cells (Red) were stained with Propidium Iodide (PI). […] (B) HCI Cell Health Digital Analysis MetaXpress software generated the graph quantifying the cell viability, seen in B, as a percentage of HL60 cells treated with the compounds. […] TEXT PRINTED IN THE PICTURE: (B) Compound # 8: HL60 Cell Line % Cell Viability: 64.5 (125μM); HL60 Cell Line % Cell Viability: 87.4 (62.5μM); HL60 Cell Line % Cell Viability: 94.6 (31.25μM) | (B) Compound # 9: HL60 Cell Line % Cell Viability: 45.7 (125μM); HL60 Cell Line % Cell Viability: 56.9 (62.5μM); HL60 Cell Line % Cell Viability: 79.9 (31.25μM) | (B) Control: HL60 Cell Line % Cell Viability: 98.5
HL60 cells were seeded in a 96-well plate at a density of 20,000 cells per well. The cells were treated with compounds 8 and 9 and negative control (PBS) for 48 h. Three graded concentrations were used for the treatment, 31.25 µM, 62.5 µM, and 125 µM. After the treatment, the cells were stained with Calcein AM (2 µg/mL), HOECHST33342 (2.5 µg/mL), and Propidium Iodide (2.5 µg/mL) for 45 min at 37 °C and 5% CO2. Plates were imaged on a Molecular Devices ImageXpress® Microsystem, and the acquired image data were analyzed using MetaXpress® software, Molecular Devices, Downingtown, PA, USA. The Cell Health module available in the MetaXpress software was used to measure the percentage viability of live and dead cells. Experiments were performed in triplicates.

MDA-MB-231 cells = experiment: ApoTox-Glo triplex assay (caspase 3/7); conditions: MDA-MB-231, 24 h, various concentrations
Excerpt: The ApoTox-Glo® triplex assay was utilized to further evaluate the effect of compound 9 on the MDA-MB-231 cancer cell viability, cytotoxicity, and apoptosis. This assay employs a luminogenic peptide substrate for caspase 3/7 to measure caspase activity, which is used as a marker for apoptosis within the cells. […] However, since this assay was time-dependent, the level of cytotoxicity (Figure 7B) determined, in this case, was not a true representative of the compound’s cytotoxic potential; it is reasonable to say that at the endpoint of apoptosis (Figure 7C), a heightened level of cytotoxicity would be observed.
The Promega ApoTox-Glo® triplex assay was conducted as described by the manufacturer. Briefly, the cells were incubated at 37 °C for 12 h and then treated for 24 h with various concentrations of compound 9 [29, 30]. Next, 100 µL of the Viability and Cytotoxicity Reagent was added to each well and briefly mixed on an orbital shaker. Plates were incubated at 37 °C for 30 min, and the fluorescence was measured at the following two-wavelength sets—400Ex/505Em (Viability) and 485Ex/520 Em (Cytotoxicity)—using the Envision plate reader (Perkin Elmer). […] Finally, to determine the level of apoptosis, the luminescence associated with caspase 3/7 activation was measured using an Envision plate reader (Perkin Elmer).

Question: With `COc1cccc(/C=C2\N=C(c3ccccc3)N(Nc3ccc([N+](=O)[O-])cc3[N+](=O)[O-])C2=O)c1` [Compound 9] as the compound, how does the IC50 (HL60 cells [1]; 24 h) read?
Answer: The IC50 was 8.63 µM.

Question: What about the IC50 (HL60 cells [1]; Homo sapiens, HL-60, 24 h) of the same compound?
Answer: The IC50 was 8.63 µM.

Question: What about the cytotoxic efficacy (HL60 cells [2]; 31.25 µM, HL60, 48 h) of the same compound?
Answer: Its cytotoxic efficacy is “approximately 20%”.

Question: What about the cytotoxicity (HL60 cells [2]; 62.5 µM, HL60, 48 h) of the same compound?
Answer: Its cytotoxicity is “approximately 54%”.

Question: What about the viability at 31.25 µM (HL60 cells [2]) of the same compound?
Answer: The viability at 31.25 µM was 79.9%.

Question: What about the viability at 62.5 µM (HL60 cells [2]) of the same compound?
Answer: Its viability at 62.5 µM is 56.9%.

Question: And the viability at 125 µM (HL60 cells [2])?
Answer: Its viability at 125 µM is 45.7%.

Question: And the “apoptosis in HL60 cells (HCI)” value (HL60 cells [2])?
Answer: Its value is “led to apoptosis”.

Question: And the “caspase 3/7-mediated apoptosis” value (MDA-MB-231 cells)?
Answer: Its value is “induced caspase 3-/7-mediated apoptosis in a dose-dependent manner”.

Question: What does the source list for `O=C1/C(=C/c2ccccc2)N=C(c2ccccc2)N1Nc1ccc([N+](=O)[O-])cc1[N+](=O)[O-]` [Compound 8]?
Answer: IC50 (HL60 cells [1]; 24 h): 9.24 µM; IC50 (HL60 cells [1]; Homo sapiens, HL-60, 24 h): 9.23 µM; viability at 31.25 µM (HL60 cells [2]): 94.6%; viability at 62.5 µM (HL60 cells [2]): 87.4%; viability at 125 µM (HL60 cells [2]): 64.5%; apoptosis in HL60 cells (HCI) (HL60 cells [2]): led to apoptosis

— article PMC9029529, “Distinct Mechanisms of Cytotoxicity in Novel Nitrogenous Heterocycles: Future Directions for a New Anti-Cancer Agent” (Molecules, 2022)
